Literature values, collected in US20230148652A1, “ORAL PRODUCTS WITH NICOTINE-POLYMER COMPLEX” (NICOVENTURES TRADING LIMITED, priority 2021, published 2023).

Key:
[1] = partition between octanol and water

Molecule	solubility	chemical stability (when isolated)	logP [1]
CC(/C=C/C=C(C)/C=C/C(=O)O)=C\C=C\C=C(C)\C=C\C=C(C)\C=C\C(=O)O (stereo in doubt) [norbixin, (2E,4E,6E,8E,10E,12E,14E,16E,18E)-4,8,13,17-tetramethylicosa-2,4,6,8,10,12,14,16,18-nonaenedioic acid]	water soluble	–	–
COC(=O)/C=C/C(C)=C\C=C\C(C)=C\C=C\C=C(C)\C=C\C=C(C)\C=C\C(=O)O [bixin, (2E,4E,6E,8E,10E,12E,14E,16Z,18E)-20-methoxy-4,8,13,17-tetramethyl-20-oxoicosa-2,4,6,8,10,12,14,16,18-nonaenoic acid]	soluble in fats and alcohols but insoluble in water	chemically unstable when isolated	–
CC(C)[C@@H]1CC[C@@H](C)C[C@H]1OC(=O)CCC(=O)O [monomenthyl succinate]	–	–	3
ethyl benzoic acid	–	–	2.9
isopropyl benzoic acid	–	–	3.5
